The supplement of paper PMC10307832

What was measured:
Assay in all cases: relative viability (nuclei count vs DMSO), 5 days (fraction); higher = more cells survive
OSI-027 + Dasatinib = compound: COc1cccc2cc(-c3nc([C@H]4CC[C@H](C(=O)O)CC4)n4ncnc(N)c34)[nH]c12 [OSI-027] + Cc1nc(Nc2ncc(C(=O)Nc3c(C)cccc3Cl)s2)cc(N2CCN(CCO)CC2)n1 [Dasatinib] (partner 0.075 µM)
Outline: (§1)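 Five library-drug doses in √10 steps were combined with a fixed anchor-drug dose, or a single drug was given alone, by pin tool to lung cancer cell lines in 1536-well plates the day after seeding. Nuclei were stained and counted after 5 days. Relative viability is the nuclei count in treated wells over that in vehicle wells, taken as the median of duplicate plates.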

OSI-027 + Decitabine = compound: COc1cccc2cc(-c3nc([C@H]4CC[C@H](C(=O)O)CC4)n4ncnc(N)c34)[nH]c12 [OSI-027] + Nc1ncn([C@H]2C[C@H](O)[C@@H](CO)O2)c(=O)n1 [Decitabine] (partner 2 µM)
Outline: as §1

Alpelisib + AZD7762 = compound: Cc1nc(NC(=O)N2CCC[C@H]2C(N)=O)sc1-c1ccnc(C(C)(C)C(F)(F)F)c1 [Alpelisib] + NC(=O)Nc1cc(-c2cccc(F)c2)sc1C(=O)N[C@H]1CCCNC1 [AZD7762] (partner 0.2 µM)
Outline: as §1

Vemurafenib + Vorinostat = compound: CCCS(=O)(=O)Nc1ccc(F)c(C(=O)c2c[nH]c3ncc(-c4ccc(Cl)cc4)cc23)c1F [Vemurafenib] + O=C(CCCCCCC(=O)Nc1ccccc1)NO [Vorinostat] (partner 1 µM)
Outline: as §1

Cell Line | relative viability (OSI-027 + Dasatinib; first compound 0.01 µM) | relative viability (OSI-027 + Dasatinib; first compound 0.03162 µM) | relative viability (OSI-027 + Dasatinib; first compound 0.1 µM) | relative viability (OSI-027 + Dasatinib; first compound 0.3162 µM) | relative viability (OSI-027 + Dasatinib; first compound 1 µM) | relative viability (OSI-027 + Decitabine; first compound 0.01 µM) | relative viability (OSI-027 + Decitabine; first compound 0.03162 µM) | relative viability (OSI-027 + Decitabine; first compound 0.1 µM) | relative viability (OSI-027 + Decitabine; first compound 0.3162 µM) | relative viability (OSI-027 + Decitabine; first compound 1 µM) | relative viability (Alpelisib + AZD7762; first compound 0.04 µM) | relative viability (Alpelisib + AZD7762; first compound 0.1265 µM) | relative viability (Alpelisib + AZD7762; first compound 0.4 µM) | relative viability (Alpelisib + AZD7762; first compound 1.265 µM) | relative viability (Alpelisib + AZD7762; first compound 4 µM) | relative viability (Vemurafenib + Vorinostat; first compound 0.03162 µM) | relative viability (Vemurafenib + Vorinostat; first compound 0.1 µM) | relative viability (Vemurafenib + Vorinostat; first compound 1 µM) | relative viability (Vemurafenib + Vorinostat; first compound 0.3162 µM)
LU99A | 0.519 | 0.513 | 0.486 | 0.293 | 0.259 | 0.773 | 0.966 | 0.675 | 0.485 | 0.216 | 0.335 | 0.361 | 0.408 | 0.365 | 0.398 | 0.513 | 0.578 | 0.466 | –
LXF-289 | 0.175 | 0.216 | 0.198 | 0.182 | 0.102 | 0.378 | 0.355 | 0.379 | 0.367 | 0.349 | 1.05 | 1.1 | 1.21 | 1.18 | 1.27 | 0.708 | 0.656 | 0.789 | 0.805
NCI-H23 | 0.718 | 0.899 | 0.867 | 0.746 | 0.46 | 0.296 | 0.336 | 0.305 | 0.278 | 0.268 | 0.23 | 0.211 | 0.396 | 0.154 | 0.224 | 0.53 | 0.588 | 0.402 | 0.561
NCI-H322M | 0.252 | 0.236 | 0.224 | 0.233 | 0.248 | 0.66 | 0.658 | 0.694 | 0.662 | 0.542 | 0.594 | 0.556 | 0.47 | 0.424 | 0.458 | 0.84 | – | 0.829 | 1.11
NCI-H358 | 0.154 | 0.183 | 0.158 | 0.127 | 0.132 | 0.191 | 0.182 | 0.199 | 0.232 | 0.178 | 0.506 | 0.386 | 0.497 | 0.301 | 0.295 | 0.671 | 0.587 | 0.65 | 0.768
NCI-H441 | 0.74 | 0.577 | 0.706 | 0.505 | 0.526 | 0.266 | 0.263 | 0.261 | 0.293 | 0.259 | 1.28 | 1.14 | 1.35 | 1.22 | 1.07 | 0.875 | 0.663 | 0.642 | 0.652
NCI-H460 | 0.568 | 0.462 | 0.37 | 0.243 | 0.158 | 0.544 | 0.502 | 0.541 | 0.456 | 0.241 | 0.542 | 0.638 | 0.746 | 0.513 | 0.404 | 0.661 | 0.729 | 0.723 | 0.665
NCI-H522 | 0.963 | 0.944 | 0.723 | 0.629 | 0.736 | 0.705 | 0.724 | 0.626 | 0.629 | 0.582 | 0.791 | 0.987 | 0.729 | 0.702 | 0.678 | 0.901 | 0.846 | 0.714 | 0.835
NCI-H596 | 0.588 | 0.55 | 0.606 | 0.562 | 0.564 | 1.1 | 1.08 | 1.1 | 1.03 | 0.82 | 0.895 | 1.05 | 1.03 | 0.725 | 0.472 | 0.587 | 0.742 | 0.497 | 0.465
NCI-H647 | 0.126 | 0.14 | 0.157 | 0.171 | 0.071 | 0.385 | 0.543 | 0.397 | 0.248 | 0.211 | 0.586 | 0.322 | 0.688 | 0.393 | 0.325 | 0.411 | 0.643 | 0.442 | 0.6
NCI-H650 | 0.405 | 0.464 | 0.336 | 0.347 | 0.311 | 0.303 | 0.317 | 0.288 | 0.3 | 0.276 | 1.08 | 0.769 | 0.931 | 0.773 | 0.837 | 0.413 | 0.384 | 0.296 | 0.263
NCI-H727 | 0.368 | 1.04 | 0.354 | 0.394 | 0.339 | 0.808 | 0.778 | 0.849 | 0.774 | 0.761 | 0.472 | 0.567 | 0.625 | 0.673 | 0.555 | 1.01 | 0.978 | 1.27 | 1.41
NCI-H838 | 0.283 | 0.276 | 0.224 | 0.227 | 0.239 | 0.503 | 0.483 | 0.403 | 0.378 | 0.337 | 0.916 | 0.946 | 1.02 | 0.775 | 0.86 | 0.683 | 0.726 | 0.844 | 0.6
NCI-H1355 | 0.718 | 0.564 | 0.534 | 0.409 | 0.324 | 0.329 | 0.437 | 0.356 | 0.376 | 0.243 | 0.792 | 0.78 | 0.704 | 0.636 | 0.553 | 0.56 | 0.58 | 0.642 | 0.566
NCI-H1395 | 0.385 | 0.398 | 0.373 | 0.341 | 0.343 | 0.696 | 0.742 | 0.684 | 0.645 | 0.532 | 0.438 | 0.379 | 0.404 | 0.393 | 0.392 | 0.627 | 0.707 | 0.709 | 0.499
NCI-H1437 | 0.421 | 0.441 | 0.32 | 0.373 | 0.192 | 0.499 | 0.614 | 0.63 | 0.493 | 0.387 | 1.12 | 1.18 | 1.12 | 1.02 | 1.06 | 0.798 | 0.825 | 0.945 | 0.873
NCI-H1651 | 0.405 | 0.325 | 0.352 | 0.358 | 0.213 | 0.629 | 0.553 | 0.576 | 0.561 | 0.515 | 0.458 | 0.442 | 0.535 | 0.536 | 0.359 | 0.524 | 0.581 | 0.625 | 0.471
